Experimental data reported in patent US12458614B2, “Therapeutic agents for improved mobility and cognitive function and for treating neurodegenerative diseases and lysosomal storage disorders” (priority 2017, dated 2025).

Legend:
[1] = test system: patients with Tay-Sachs disease; assay: Case studies, Tay-Sachs disease (SARA, SCAFI, MoCA); type: in vivo, human
Excerpt: For example, to evaluate overall neurological status, mDRS, a four-domain scale (ambulation, manipulation, language and swallowing), may be applied. Cerebellar function may be evaluated using SARA, an eight-item clinical rating scale (gait, stance, sitting, speech, fine motor function and taxis; range 0-40, where 0 is the best neurological status and 40 the worst), and SCAFI, comprising the 8-m-Walking-Time (8MW; performed by having patients walking twice as quickly as possible from one line to another excluding turning), 9-Hole-Peg-Test (9HPT) and the number of “PATA” repetitions over 10 s. Subjective impairment and quality of life may be evaluated using the EQ-5D-5L questionnaire and VAS. To assess ocular motor function, 3-dimensional videooculography (EyeSeeCam) may be used to measure the peak velocity of saccades, gain of smooth pursuit, peak slow phase velocity of gaze-evoked nystagmus (gaze-holding function), peak slow phase velocity of optokinetic nystagmus, and gain of horizontal vestibulo-ocular reflex. To evaluate the cognitive state, WAIS-R or WISC-IV, and MoCA, assessing different cognitive domains, including attention and concentration, executive functions, memory, language, visuoconstructional skills, conceptual thinking, calculations, and orientation with a maximum of 30 points and a cut-off score of 26, may be used. The skilled person will know how to perform these and other such tests.
The day following this examination, the patient was started on therapy with acetyl-leucine, at a dose of 3 g per day for the first week, followed by a dose of 5 g per day for the second week onwards.
The day of the examination, the patient was started on therapy with acetyl-leucine at a dose of 3 g per day for the first week, followed by a dose of 5 g per day for the second week onwards.
The patient was started on therapy with acetyl-leucine at a dose of 1.5 g per day for the first week, followed by a dose of 3 g per day for the second week onwards.

[2] = test system: subjects with no apparent dysfunction in cognitive ability or movement/balance; assay: Balancing ability (eyes closed, non-dominant foot lifted); type: in vivo, human
Method: Due to reported improvement in balance on treatment we measured balancing ability at the end of the treatment period and at the end of the washout period. This assessment required the subject to close their eyes and lift their non-dominant foot around 6 inches off the ground. The subject was then timed to see how long they could remain upright and without significant wobbles. This was repeated three times, and the values averaged. […] This assessment required the subject to close their eyes and lift their non-dominant foot around 6 inches off the ground. The subject was then timed to see how long they could remain upright and without significant wobbles. This was repeated three times, and the values averaged. We measured balancing ability at the end of the treatment period and at the end of the washout period. This assessment required the subject to close their eyes and lift their non-dominant foot around 6 inches off the ground. The subject was then timed to see how long they could remain upright and without significant wobbles. This was repeated three times, and the values averaged.

[3] = test system: Mucopolysaccharidosis Type VII (MPS VII) patient fibroblasts; assay: Lysosomal volume via LysoTracker; type: cell-based, human; details: 1 mM, 6 days
[4] = test system: Sandhoff disease patient fibroblasts; assay: Glycosphingolipid (GSL) levels via HPLC; type: cell-based, human; details: 1 mM for 6 days
[5] = test system: patient with frontotemporal dementia with parkinsonism; assay: Case study, frontotemporal dementia with parkinsonism; type: in vivo, human
Excerpt: After approximately one month of acetyl-leucine treatment, medication was stopped and the patient was re-examined 13 days later.

wild-type (Npc1+/+) mice = assay: Motor function analysis (Open Field Activity Monitor); type: in vivo, mouse; details: nine weeks of age
Method: (§1) Separate groups of Npc1^−/− and Npc1^+/+ mice were left untreated, as controls. Motor function analysis was performed on mice at eight and nine weeks of age using an Open Field Activity Monitor according to manufacturer's instructions (Linton Instruments, Amlogger Software). Each mouse was placed in a plastic cage with bedding and analysed for five minutes. Rears were counted manually. Motor function parameters measured were: • 1. Centre Rearing: mice rearing on hind legs unsupported; • 2. Rearing: mice rearing on hind legs with and without the support of cage walls; • 3. Activity: regular movement of the animal including walks; • 4. Front to Back (FR) count: movement of the animal from front to back of the cage; • 5. Active Time: duration (s/min) of activeness regardless of movement; • 6. Mobile Time: duration (s/min) of mobility; • 7. Rearing Time: duration of any rearing. Results Coat Condition

Npc1−/− mice = assay: as above; type: in vivo, mouse; details: nine weeks of age
Method: as §1

[6] = test system: patient with Lewy Body dementia; assay: Case study, Lewy Body dementia; type: in vivo, human; details: Lewy Body dementia patient
Method: The patient started taking acetyl-leucine (3 g/day for one week; 5 g/day thereafter) and was evaluated after four weeks. […] Medication was reduced to 3 g/day, and the patient was instructed to stop medication about two weeks later.

[7] = test system: Sandhoff disease model, Hexb−/− mouse; assay: Step cycle time; type: in vivo; details: Sandhoff mice, 12 weeks of age
Method: This study made use of a mouse model of Sandhoff disease, the Hexb^−/− mouse, as descrbed in Jeyakumar et al. (Jeyakumar, M. et al. (1999) Proc. Natl. Acad. Sci. USA 96: 6388-6393). Step cycle is the length of time taken during locomotion by a limb from the time it leaves the ground until it leaves the ground on the next occasion. Step cycle time was assessed at 12 weeks of age in untreated and acetyl-leucine treated Sandhoff model mice. Acetyl-leucine treatment constituted 0.1 g/kg body weight acetyl-leucine from 3 weeks of age.

CC(=O)NC(CC(C)C)C(=O)O (racemic) [acetyl-DL-leucine]
Overall symptoms ([1]; Tay-Sachs Patient 1): improvement in symptoms
Clinical re-examination ([1]; Tay-Sachs Patient 1, after four months): stable condition with slightly improved cognitive function but had deterioration of stance, gait and fine motor function
Clinical re-examination ([1]; Tay-Sachs Patient 1, after one month, 3 g then 5 g per day): improved fine motor skills and reduced hand tremor
Clinical re-examination ([1]; Tay-Sachs Patient 2, after one month, 3 g then 5 g per day): increased enunciation, improved postural stability, and enhanced cognitive function
Clinical re-examination ([1]; Tay-Sachs Patient 3, after one month, 1.5 g then 3 g per day): increased fine motor skills
Time subject remained balanced ([2]; person one, end of the washout period): 8 s
Time subject remained balanced ([2]; person one, last day of the treatment period): 12 s
Time subject remained balanced ([2]; person three, end of the washout period): 4.01 s
Time subject remained balanced ([2]; person three, last day of the treatment period): 7.27 s
Time subject remained balanced ([2]; person two, end of the washout period): 3.1 s
Time subject remained balanced ([2]; person two, last day of the treatment period): 7.9 s
LysoTracker fluorescence vs untreated disease fibroblasts [3]: trend in reducing LysoTracker fluorescence toward control level
GSL levels [4]: trend towards decreased GSL levels
Symptoms after suspension of treatment ([5]; re-examined 13 days after stop): symptoms worsened
Falls ([5]; under therapy): falls stopped
Speech ([5]; under therapy): improvement of speech
Gait ([5]; under therapy, 3 then 5 gram per day, about one month): significant improvement of gait
Motor function properties vs untreated littermates (wild-type (Npc1+/+) mice): no significant difference in motor function properties
Motor function properties vs untreated littermates (Npc1−/− mice): significantly improved motor function
Patient report on treatment ([6]; after four weeks, 3 g/day then 5 g/day): increased fatigue and a deterioration of balance and speech
Patient report on decreased dose ([6]; reduced to 3 g/day): did not report improvement of symptomatology with the decreased dose
Average step cycle time ([7]; p<0.001 vs untreated): significantly faster average step cycle times
Hind step cycle time ([7]; p<0.01 vs untreated): significantly faster hind step cycle times
Front step cycle time ([7]; p<0.05 vs untreated): significantly faster front step cycle times
